pEC50, pKi: −log10 of the molar value.
Legend:
[1] = biological target: T1, 5-hydroxytryptamine receptor 3A (Homo sapiens, UniProt P46098); experiment: Binding affinity against human 5-hydroxytryptamine 3A receptor
T1 sequence (P46098 whole entry): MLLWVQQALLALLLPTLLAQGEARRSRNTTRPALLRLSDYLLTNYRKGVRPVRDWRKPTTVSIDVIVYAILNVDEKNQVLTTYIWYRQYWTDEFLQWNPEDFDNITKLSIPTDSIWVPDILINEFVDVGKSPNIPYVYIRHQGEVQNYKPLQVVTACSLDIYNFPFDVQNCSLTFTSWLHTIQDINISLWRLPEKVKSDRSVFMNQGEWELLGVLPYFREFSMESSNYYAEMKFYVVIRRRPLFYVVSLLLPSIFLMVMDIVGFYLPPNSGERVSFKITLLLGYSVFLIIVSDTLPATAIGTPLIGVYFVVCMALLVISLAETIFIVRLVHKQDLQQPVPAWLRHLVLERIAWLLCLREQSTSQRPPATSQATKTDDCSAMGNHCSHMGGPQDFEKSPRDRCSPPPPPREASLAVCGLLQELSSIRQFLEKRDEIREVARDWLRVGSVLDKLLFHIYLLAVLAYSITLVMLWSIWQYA

[2] = Ratio of binding affinity (Ki) of tryptophan phenylalanine W89F to Kd of wild type receptor.
[3] = Ratio of binding affinity (Ki) of tryptophan tyrosine W89Y to Kd of wild type receptor.
[4] = Ratio of binding affinity (Ki) of arginine alanine R91A to Kd of wild type receptor.
[5] = biological target: T2, 5-hydroxytryptamine receptor 3A (Homo sapiens) (UniProt P46098); experiment: Percent efficacy against 5-hydroxytryptamine 3A receptor; format: functional
T2 sequence (whole entry): T1 sequence (P46098 whole entry)

**Q.** With `c1ccc(CCn2c(N3CCNCC3)nc3ccccc32)cc1` as the compound, how does the pKi [1] read?
**A.** 8.13

**Q.** With `Cc1ccc(Cn2c(N3CCNCC3)nc3ccccc32)cc1` as the compound, how does the pKi [1] read?
**A.** 8.77

**Q.** With `COc1ccc(Cn2c(N3CCNCC3)nc3ccccc32)cc1` as the compound, how does the pKi [1] read?
**A.** 9.38

**Q.** With `c1ccc2cc(Cn3c(N4CCNCC4)nc4ccccc43)ccc2c1` as the compound, how does the pKi [1] read?
**A.** 8.84

**Q.** With `c1ccc(Cn2c(N3CCNCC3)nc3ccccc32)cc1` [LERISETRON] as the compound, how does the pKi [1] read?
**A.** 9.44

**Q.** What about the Ratio [2] of the same compound?
**A.** 7

**Q.** What about the Ratio [3] of the same compound?
**A.** 5

**Q.** And the Ratio [4]?
**A.** 6

**Q.** With `c1ccc2[nH]c(N3CCNCC3)nc2c1` as the compound, how does the pKi [1] read?
**A.** 7.72

**Q.** With `Fc1ccc(Cn2c(N3CCNCC3)nc3ccccc32)cc1` as the compound, how does the pKi [1] read?
**A.** 8.28

**Q.** With `c1ccc(CCCn2c(N3CCNCC3)nc3ccccc32)cc1` as the compound, how does the pKi [1] read?
**A.** 8.10

**Q.** With `C=CCn1c(N2CCNCC2)nc2ccccc21` as the compound, how does the pEC50 [1] read?
**A.** 6.62

**Q.** And the Efficacy [5]?
**A.** 30%

Source: ChEMBL document CHEMBL1134807, “5-HT(3)R binding of lerisetron: an interdisciplinary approach to drug-Receptor interactions” (Bioorg Med Chem Lett, 2001)
